Data taken from patent US9884823B2, “Oxime ether acetate compound, preparation method therefor and weeding application thereof” (ZHEJIANG UNIVERSITY OF TECHNOLOGY, priority 2014, dated 2018).

Tested on: Barnyardgrass
Assay: Culture dish method (general screening)
Assay type: in vivo, barnyard grass
Conditions: 100 mg/L; 7 days; root
Excerpt: (§3) Culture dish method (general screening): The test targets were radish, cucumber, rape, wheat, sorghum and barnyard grass; the seeds of wheat, sorghum and radish were germinated in advance, and the uniform emerge-germinating seeds were used in the test.

Compound | inhibition rate, Barnyardgrass Root [%]
CON=C(C(=O)OC)c1ccccc1COc1cccc(-c2ccnc(Cl)c2)c1 [Compound 67] | 50
CON=C(C(=O)OC)c1ccccc1COc1ccc(-c2ccnc(Cl)c2)cc1 [Compound 75] | 30
CON=C(C(=O)OC)c1ccccc1COc1cccc(-c2ncccc2C)c1 [Compound 83] | 80
CON=C(C(=O)OC)c1ccccc1COc1cccc(-c2cc(C)ccn2)c1 [Compound 84] | 80
CON=C(C(=O)OC)c1ccccc1COc1cccc(-c2ncc(Br)cc2[N+](=O)[O-])c1 [Compound 104] | 0
CON=C(C(=O)OC)c1ccccc1COc1cccc(-c2c(Cl)cncc2Cl)c1 [Compound 110] | 0

Same assay, conditions: 100 mg/L; 7 days; stem

Compound | inhibition rate, Barnyardgrass Stem [%]
CON=C(C(=O)OC)c1ccccc1COc1cccc(-c2ccnc(Cl)c2)c1 [Compound 67] | 0
CON=C(C(=O)OC)c1ccccc1COc1ccc(-c2ccnc(Cl)c2)cc1 [Compound 75] | 30
CON=C(C(=O)OC)c1ccccc1COc1cccc(-c2ncccc2C)c1 [Compound 83] | 0
CON=C(C(=O)OC)c1ccccc1COc1cccc(-c2cc(C)ccn2)c1 [Compound 84] | 0
CON=C(C(=O)OC)c1ccccc1COc1cccc(-c2ncc(Br)cc2[N+](=O)[O-])c1 [Compound 104] | 0
CON=C(C(=O)OC)c1ccccc1COc1cccc(-c2c(Cl)cncc2Cl)c1 [Compound 110] | 0

Tested on: Cucumber
Assay: Culture dish method (general screening)
Assay type: in vivo
Conditions: 100 mg/L; 7 days; root
Excerpt: as §3

Compound | inhibition rate, Cucumber Root [%]
CON=C(C(=O)OC)c1ccccc1COc1cccc(-c2ccnc(Cl)c2)c1 [Compound 67] | 50
CON=C(C(=O)OC)c1ccccc1COc1ccc(-c2ccnc(Cl)c2)cc1 [Compound 75] | 30
CON=C(C(=O)OC)c1ccccc1COc1cccc(-c2ncccc2C)c1 [Compound 83] | 80
CON=C(C(=O)OC)c1ccccc1COc1cccc(-c2cc(C)ccn2)c1 [Compound 84] | 30
CON=C(C(=O)OC)c1ccccc1COc1cccc(-c2ncc(Br)cc2[N+](=O)[O-])c1 [Compound 104] | 20
CON=C(C(=O)OC)c1ccccc1COc1cccc(-c2c(Cl)cncc2Cl)c1 [Compound 110] | 20

Same assay, conditions: 100 mg/L; 7 days; stem

Compound | inhibition rate, Cucumber Stem [%]
CON=C(C(=O)OC)c1ccccc1COc1cccc(-c2ccnc(Cl)c2)c1 [Compound 67] | 0
CON=C(C(=O)OC)c1ccccc1COc1ccc(-c2ccnc(Cl)c2)cc1 [Compound 75] | 0
CON=C(C(=O)OC)c1ccccc1COc1cccc(-c2ncccc2C)c1 [Compound 83] | 30
CON=C(C(=O)OC)c1ccccc1COc1cccc(-c2cc(C)ccn2)c1 [Compound 84] | 0
CON=C(C(=O)OC)c1ccccc1COc1cccc(-c2ncc(Br)cc2[N+](=O)[O-])c1 [Compound 104] | 0
CON=C(C(=O)OC)c1ccccc1COc1cccc(-c2c(Cl)cncc2Cl)c1 [Compound 110] | 0

Tested on: Dog point
Assay: Potted plants live body test
Assay type: in vivo
Conditions: Postemergence spraying; 150 g a.i./ha; 30 days; Table 9
Excerpt: (§1) The raw drug which was selected from the compounds in table 1 was weighed using an analytical balance (0.0001 g), and dissolved in DMF containing 1 wt % Tween-80 emulsifier to prepare a mother liquor of raw drug with a mass concentration of 1.0˜5.0%, and then diluted with distilled water, to prepare preparations at desired concentrations according to the ratio of ingredients in Examples 8, 9 and 10.
(§2) The test targets were mustard, small quinoa, Abutilon, amaranthus retroflexus, Eclipta prostrata, crabgrass, dog point. A pot with a diameter of 7.5 cm was used, filled with composite soil (garden soil:nursery matrix, 1:2, v/v) to ¾ of the pot, then the above […] kinds of weeds targets were directly seeded (germination rate ≧85%), covered with soil at a thickness of 0.2 cm. When the weeds grew to 3-leaf stage, pre-emergence soil treatment for weeds planting, and then spraying was performed.

Compound | efficiency, Dog point [%]
CON=C(C(=O)OC)c1ccccc1COc1cccc(-c2ncccc2C)c1 [Compound 83] | 0

Same assay, conditions: Pre-emergence soil treatment; 150 g a.i./ha; 30 days; Table 9

Compound | efficiency, Dog point [%]
CON=C(C(=O)OC)c1ccccc1COc1cccc(-c2ncccc2C)c1 [Compound 83] | 0

Tested on: Eclipta prostrata
Assay: Potted plants live body test
Assay type: in vivo
Conditions: Postemergence spraying; 150 g a.i./ha; 30 days; Table 9
Excerpt: as §1, §2

Compound | efficiency, Eclipta prostrata [%]
CON=C(C(=O)OC)c1ccccc1COc1cccc(-c2ncccc2C)c1 [Compound 83] | 0

Same assay, conditions: Pre-emergence soil treatment; 150 g a.i./ha; 30 days; Table 9

Compound | efficiency, Eclipta prostrata [%]
CON=C(C(=O)OC)c1ccccc1COc1cccc(-c2ncccc2C)c1 [Compound 83] | 0

Tested on: Crabgrass
Assay: Potted plants live body test
Assay type: in vivo
Conditions: Postemergence spraying; 150 g a.i./ha; 30 days; Table 9
Excerpt: as §1, §2

Compound | efficiency, Crabgrass [%]
CON=C(C(=O)OC)c1ccccc1COc1cccc(-c2ncccc2C)c1 [Compound 83] | 0

Same assay, conditions: Pre-emergence soil treatment; 150 g a.i./ha; 30 days; Table 9

Compound | efficiency, Crabgrass [%]
CON=C(C(=O)OC)c1ccccc1COc1cccc(-c2ncccc2C)c1 [Compound 83] | 0

Tested on: amaranthus retroflexus
Assay: Potted plants live body test
Assay type: in vivo
Conditions: Postemergence spraying; 150 g a.i./ha; 30 days; Table 9
Excerpt: as §1, §2

Compound | efficiency, amaranthus retroflexus [%]
CON=C(C(=O)OC)c1ccccc1COc1cccc(-c2ncccc2C)c1 [Compound 83] | 20

Same assay, conditions: Pre-emergence soil treatment; 150 g a.i./ha; 30 days; Table 9

Compound | efficiency, amaranthus retroflexus [%]
CON=C(C(=O)OC)c1ccccc1COc1cccc(-c2ncccc2C)c1 [Compound 83] | 20

Tested on: Abutilon
Assay: Potted plants live body test
Assay type: in vivo
Conditions: Postemergence spraying; 150 g a.i./ha; 30 days; Table 9
Excerpt: as §1, §2

Compound | efficiency, Abutilon [%]
CON=C(C(=O)OC)c1ccccc1COc1cccc(-c2ncccc2C)c1 [Compound 83] | 30

Same assay, conditions: Pre-emergence soil treatment; 150 g a.i./ha; 30 days; Table 9

Compound | efficiency, Abutilon [%]
CON=C(C(=O)OC)c1ccccc1COc1cccc(-c2ncccc2C)c1 [Compound 83] | 0

Tested on: Wheat
Assay: Culture dish method (general screening)
Assay type: in vivo
Conditions: 100 mg/L; 7 days; root
Excerpt: as §3

Compound | inhibition rate, Wheat Root [%]
CON=C(C(=O)OC)c1ccccc1COc1cccc(-c2ccnc(Cl)c2)c1 [Compound 67] | 30
CON=C(C(=O)OC)c1ccccc1COc1ccc(-c2ccnc(Cl)c2)cc1 [Compound 75] | 0
CON=C(C(=O)OC)c1ccccc1COc1cccc(-c2ncccc2C)c1 [Compound 83] | 60
CON=C(C(=O)OC)c1ccccc1COc1cccc(-c2cc(C)ccn2)c1 [Compound 84] | 0
CON=C(C(=O)OC)c1ccccc1COc1cccc(-c2ncc(Br)cc2[N+](=O)[O-])c1 [Compound 104] | 0
CON=C(C(=O)OC)c1ccccc1COc1cccc(-c2c(Cl)cncc2Cl)c1 [Compound 110] | 0

Same assay, conditions: 100 mg/L; 7 days; stem

Compound | inhibition rate, Wheat Stem [%]
CON=C(C(=O)OC)c1ccccc1COc1cccc(-c2ccnc(Cl)c2)c1 [Compound 67] | 0
CON=C(C(=O)OC)c1ccccc1COc1ccc(-c2ccnc(Cl)c2)cc1 [Compound 75] | 0
CON=C(C(=O)OC)c1ccccc1COc1cccc(-c2ncccc2C)c1 [Compound 83] | 20
CON=C(C(=O)OC)c1ccccc1COc1cccc(-c2cc(C)ccn2)c1 [Compound 84] | 0
CON=C(C(=O)OC)c1ccccc1COc1cccc(-c2ncc(Br)cc2[N+](=O)[O-])c1 [Compound 104] | 0
CON=C(C(=O)OC)c1ccccc1COc1cccc(-c2c(Cl)cncc2Cl)c1 [Compound 110] | 0

Tested on: Rape
Assay: Culture dish method (general screening)
Assay type: in vivo
Conditions: 100 mg/L; 7 days; root
Excerpt: as §3

Compound | inhibition rate, Rape Root [%]
CON=C(C(=O)OC)c1ccccc1COc1cccc(-c2ccnc(Cl)c2)c1 [Compound 67] | 50
CON=C(C(=O)OC)c1ccccc1COc1ccc(-c2ccnc(Cl)c2)cc1 [Compound 75] | 0
CON=C(C(=O)OC)c1ccccc1COc1cccc(-c2ncccc2C)c1 [Compound 83] | 80
CON=C(C(=O)OC)c1ccccc1COc1cccc(-c2cc(C)ccn2)c1 [Compound 84] | 50
CON=C(C(=O)OC)c1ccccc1COc1cccc(-c2ncc(Br)cc2[N+](=O)[O-])c1 [Compound 104] | 50
CON=C(C(=O)OC)c1ccccc1COc1cccc(-c2c(Cl)cncc2Cl)c1 [Compound 110] | 20

Same assay, conditions: 100 mg/L; 7 days; stem

Compound | inhibition rate, Rape Stem [%]
CON=C(C(=O)OC)c1ccccc1COc1cccc(-c2ccnc(Cl)c2)c1 [Compound 67] | 30
CON=C(C(=O)OC)c1ccccc1COc1ccc(-c2ccnc(Cl)c2)cc1 [Compound 75] | 0
CON=C(C(=O)OC)c1ccccc1COc1cccc(-c2ncccc2C)c1 [Compound 83] | 50
CON=C(C(=O)OC)c1ccccc1COc1cccc(-c2cc(C)ccn2)c1 [Compound 84] | 0
CON=C(C(=O)OC)c1ccccc1COc1cccc(-c2ncc(Br)cc2[N+](=O)[O-])c1 [Compound 104] | 0
CON=C(C(=O)OC)c1ccccc1COc1cccc(-c2c(Cl)cncc2Cl)c1 [Compound 110] | 0

Tested on: Mustard
Assay: not given
Conditions: Postemergence spraying; 150 g a.i./ha; 30 days; Table 9

Compound | efficiency, Mustard [%]
CON=C(C(=O)OC)c1ccccc1COc1cccc(-c2ncccc2C)c1 [Compound 83] | 0

Same assay, conditions: Pre-emergence soil treatment; 150 g a.i./ha; 30 days; Table 9

Compound | efficiency, Mustard [%]
CON=C(C(=O)OC)c1ccccc1COc1cccc(-c2ncccc2C)c1 [Compound 83] | 0

Tested on: Radish
Assay: Culture dish method (general screening)
Assay type: in vivo
Conditions: 100 mg/L; 7 days; root
Excerpt: as §3

Compound | inhibition rate, Radish Root [%]
CON=C(C(=O)OC)c1ccccc1COc1cccc(-c2ccnc(Cl)c2)c1 [Compound 67] | 50
CON=C(C(=O)OC)c1ccccc1COc1ccc(-c2ccnc(Cl)c2)cc1 [Compound 75] | 0
CON=C(C(=O)OC)c1ccccc1COc1cccc(-c2ncccc2C)c1 [Compound 83] | 50
CON=C(C(=O)OC)c1ccccc1COc1cccc(-c2cc(C)ccn2)c1 [Compound 84] | 0
CON=C(C(=O)OC)c1ccccc1COc1cccc(-c2ncc(Br)cc2[N+](=O)[O-])c1 [Compound 104] | 0
CON=C(C(=O)OC)c1ccccc1COc1cccc(-c2c(Cl)cncc2Cl)c1 [Compound 110] | 0

Same assay, conditions: 100 mg/L; 7 days; stem

Compound | inhibition rate, Radish Stem [%]
CON=C(C(=O)OC)c1ccccc1COc1cccc(-c2ccnc(Cl)c2)c1 [Compound 67] | 50
CON=C(C(=O)OC)c1ccccc1COc1ccc(-c2ccnc(Cl)c2)cc1 [Compound 75] | 0
CON=C(C(=O)OC)c1ccccc1COc1cccc(-c2ncccc2C)c1 [Compound 83] | 50
CON=C(C(=O)OC)c1ccccc1COc1cccc(-c2cc(C)ccn2)c1 [Compound 84] | 0
CON=C(C(=O)OC)c1ccccc1COc1cccc(-c2ncc(Br)cc2[N+](=O)[O-])c1 [Compound 104] | 0
CON=C(C(=O)OC)c1ccccc1COc1cccc(-c2c(Cl)cncc2Cl)c1 [Compound 110] | 0

Tested on: Small quinoa
Assay: not given
Conditions: Postemergence spraying; 150 g a.i./ha; 30 days; Table 9
Excerpt: as §1, §2

Compound | efficiency, Small quinoa [%]
CON=C(C(=O)OC)c1ccccc1COc1cccc(-c2ncccc2C)c1 [Compound 83] | 50

Same assay, conditions: Pre-emergence soil treatment; 150 g a.i./ha; 30 days; Table 9

Compound | efficiency, Small quinoa [%]
CON=C(C(=O)OC)c1ccccc1COc1cccc(-c2ncccc2C)c1 [Compound 83] | 30

Tested on: grass weeds such as crabgrass, barnyard grass, dog point
Assay: not given
Conditions: 150 g a.i./ha; 30 days after administration; Table 9 summary
Excerpt: as §1, §2

Compound | activity for grass targets such as crabgrass and dog point
CON=C(C(=O)OC)c1ccccc1COc1cccc(-c2ncccc2C)c1 [Compound 83] | poor activity

Same assay, conditions: postemergence spraying; 150 g a.i./ha; 30 days

Compound | activity on grass weeds such as crabgrass, dog point
CON=C(C(=O)OC)c1ccccc1COc1cccc(-c2ncccc2C)c1 [Compound 83] | almost have no activity

Tested on: broadleaf weeds such as mustard, small quinoa, Abutilon, Amaranthus retroflexus and Eclipta prostrate
Assay: not given
Conditions: 150 g a.i./ha; 30 days after administration; Table 9 summary
Excerpt: as §1, §2

Compound | herbicidal activity on broadleaf weeds targets
CON=C(C(=O)OC)c1ccccc1COc1cccc(-c2ncccc2C)c1 [Compound 83] | herbicidal activity

Same assay, conditions: postemergence spraying; 150 g a.i./ha; 30 days; vs clear water control

Compound | activity on the growth of broadleaf weeds
CON=C(C(=O)OC)c1ccccc1COc1cccc(-c2ncccc2C)c1 [Compound 83] | inhibitory activity

Tested on: Chinese sorghum
Assay: Culture dish method (general screening)
Assay type: in vivo
Conditions: 100 mg/L; 7 days; root
Excerpt: as §3

Compound | inhibition rate, Chinese sorghum Root [%]
CON=C(C(=O)OC)c1ccccc1COc1cccc(-c2ccnc(Cl)c2)c1 [Compound 67] | 50
CON=C(C(=O)OC)c1ccccc1COc1ccc(-c2ccnc(Cl)c2)cc1 [Compound 75] | 0
CON=C(C(=O)OC)c1ccccc1COc1cccc(-c2ncccc2C)c1 [Compound 83] | 80
CON=C(C(=O)OC)c1ccccc1COc1cccc(-c2cc(C)ccn2)c1 [Compound 84] | 0
CON=C(C(=O)OC)c1ccccc1COc1cccc(-c2ncc(Br)cc2[N+](=O)[O-])c1 [Compound 104] | 0
CON=C(C(=O)OC)c1ccccc1COc1cccc(-c2c(Cl)cncc2Cl)c1 [Compound 110] | 0

Same assay, conditions: 100 mg/L; 7 days; stem

Compound | inhibition rate, Chinese sorghum Stem [%]
CON=C(C(=O)OC)c1ccccc1COc1cccc(-c2ccnc(Cl)c2)c1 [Compound 67] | 50
CON=C(C(=O)OC)c1ccccc1COc1ccc(-c2ccnc(Cl)c2)cc1 [Compound 75] | 0
CON=C(C(=O)OC)c1ccccc1COc1cccc(-c2ncccc2C)c1 [Compound 83] | 30
CON=C(C(=O)OC)c1ccccc1COc1cccc(-c2cc(C)ccn2)c1 [Compound 84] | 0
CON=C(C(=O)OC)c1ccccc1COc1cccc(-c2ncc(Br)cc2[N+](=O)[O-])c1 [Compound 104] | 0
CON=C(C(=O)OC)c1ccccc1COc1cccc(-c2c(Cl)cncc2Cl)c1 [Compound 110] | 0
